From US20260242353A1, “HETEROARYL DERIVATIVES AS DDRs INHIBITORS” (CHIESI FARMACEUTICI S.P.A., priority 2022, published 2026)

How the values were obtained:
DDR1 = molecular target: T1, DDR1 (Homo sapiens, UniProt Q08345); test: LanthaScreen Europium Kinase Binding assay, DDR1; settings: 5 nM DDR1, 20 nM Kinase Tracer 178, 1 h at rt; Ki from IC50 by Cheng-Prusoff; read-out: Ki DDR1
T1 construct: purchased Carna Biosciences
Summary of the method: (§1)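 Compounds were incubated 1 h at rt with 5 nM DDR1 plus 20 nM Kinase Tracer 178, or 5 nM DDR2 plus 10 nM tracer, and 2 nM Eu anti-GST antibody in HEPES pH 7.5 buffer. Read-out was the TR-FRET 665/615 nm ratio. IC50 came from a 4-parameter fit and was converted to Ki by Cheng-Prusoff.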

DDR2 = molecular target: T2, DDR2 (Homo sapiens, UniProt Q16832); test: LanthaScreen Europium Kinase Binding assay, DDR2; settings: 5 nM DDR2, 10 nM Kinase Tracer 178, 1 h at rt; Ki from IC50 by Cheng-Prusoff; read-out: Ki DDR2
T2 construct: purchased Life Technologies
T2 sequence (Q16832 22-855): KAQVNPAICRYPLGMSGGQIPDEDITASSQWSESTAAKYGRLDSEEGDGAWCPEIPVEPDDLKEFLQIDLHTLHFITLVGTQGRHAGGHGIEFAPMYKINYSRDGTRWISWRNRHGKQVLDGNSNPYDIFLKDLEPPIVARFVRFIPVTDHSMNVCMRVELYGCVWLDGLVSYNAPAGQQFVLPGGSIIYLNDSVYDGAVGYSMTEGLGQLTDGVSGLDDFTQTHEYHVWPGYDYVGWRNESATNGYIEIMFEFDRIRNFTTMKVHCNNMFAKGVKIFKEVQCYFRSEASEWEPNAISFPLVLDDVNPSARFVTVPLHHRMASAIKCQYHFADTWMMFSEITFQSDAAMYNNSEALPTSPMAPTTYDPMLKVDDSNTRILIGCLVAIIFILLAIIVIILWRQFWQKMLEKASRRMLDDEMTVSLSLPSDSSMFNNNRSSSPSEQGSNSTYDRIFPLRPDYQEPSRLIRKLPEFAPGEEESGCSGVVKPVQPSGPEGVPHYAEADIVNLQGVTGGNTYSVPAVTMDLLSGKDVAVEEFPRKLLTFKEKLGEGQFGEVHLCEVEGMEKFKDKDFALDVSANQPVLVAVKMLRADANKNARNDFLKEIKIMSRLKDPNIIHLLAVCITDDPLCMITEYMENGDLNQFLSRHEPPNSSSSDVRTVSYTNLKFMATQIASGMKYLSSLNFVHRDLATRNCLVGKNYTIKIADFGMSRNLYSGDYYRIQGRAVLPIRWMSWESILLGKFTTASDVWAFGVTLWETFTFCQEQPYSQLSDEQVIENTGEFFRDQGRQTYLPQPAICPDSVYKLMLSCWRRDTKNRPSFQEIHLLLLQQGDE
Summary of the method: as §1

T1 sequence (Q08345 19-913): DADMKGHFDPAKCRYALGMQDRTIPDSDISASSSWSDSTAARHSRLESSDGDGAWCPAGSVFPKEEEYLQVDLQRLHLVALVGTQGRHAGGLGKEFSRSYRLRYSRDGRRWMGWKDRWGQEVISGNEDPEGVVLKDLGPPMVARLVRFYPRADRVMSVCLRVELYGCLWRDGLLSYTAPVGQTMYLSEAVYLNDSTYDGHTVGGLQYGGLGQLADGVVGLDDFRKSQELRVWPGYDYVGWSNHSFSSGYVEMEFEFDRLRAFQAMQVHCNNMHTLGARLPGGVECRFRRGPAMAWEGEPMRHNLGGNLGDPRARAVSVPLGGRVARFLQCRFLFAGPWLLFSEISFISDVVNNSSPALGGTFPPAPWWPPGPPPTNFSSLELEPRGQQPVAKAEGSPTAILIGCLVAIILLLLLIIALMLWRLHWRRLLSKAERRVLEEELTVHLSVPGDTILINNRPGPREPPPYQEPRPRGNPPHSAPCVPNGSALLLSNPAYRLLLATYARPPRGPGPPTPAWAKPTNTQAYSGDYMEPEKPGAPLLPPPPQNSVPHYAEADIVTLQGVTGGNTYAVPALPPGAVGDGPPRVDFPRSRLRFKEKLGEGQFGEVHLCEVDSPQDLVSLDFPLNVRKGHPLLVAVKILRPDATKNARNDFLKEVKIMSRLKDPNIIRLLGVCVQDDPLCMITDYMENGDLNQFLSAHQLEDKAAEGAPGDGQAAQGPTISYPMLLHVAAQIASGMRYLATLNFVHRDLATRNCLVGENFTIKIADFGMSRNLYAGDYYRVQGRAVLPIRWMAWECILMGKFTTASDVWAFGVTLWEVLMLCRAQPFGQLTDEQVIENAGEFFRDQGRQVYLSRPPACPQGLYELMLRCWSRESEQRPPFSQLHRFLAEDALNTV

In the case of `Cc1ccc(C(=O)Nc2cncc(C(F)(F)F)c2)cc1N1CC(Oc2cncc(N)c2)C1` [Example 47, 3-(3-((5-aminopyridin-3-yl)oxy)azetidin-1-yl)-4-methyl-N-(5-(trifluoromethyl)pyridin-3-yl)benzamide], the Ki (DDR1) is reported as 5 to 25 nM and the Ki (DDR2) is reported as 5 to 25 nM.
With `Cc1ccc(C(=O)Nc2cc(OC(F)F)ccn2)cc1[C@@H]1CCN(c2cncc(C(N)=O)n2)C1` [Example 51, (S)-6-(3-(5-((4-(difluoromethoxy)pyridin-2-yl)carbamoyl)-2-methylphenyl)pyrrolidin-1-yl)pyrazine-2-carboxamide] the Ki (DDR1) was < 5 nM and the Ki (DDR2) was < 5 nM.
With `Cc1ccc(C(=O)Nc2cc(C(C)(C)C)n(C)n2)cc1[C@@H]1CCN(c2ccnc(C(N)=O)c2)C1` [Example 52, (S)-4-(3-(5-((5-(tert-butyl)-1-methyl-1H-pyrazol-3-yl)carbamoyl)-2-methylphenyl)pyrrolidin-1-yl)picolinamide] the Ki (DDR1) was < 5 nM and the Ki (DDR2) was 5 to 25 nM.
For `Cc1ccc(C(=O)Nc2cc(CN(C)C)nc(C(F)(F)F)c2)cc1[C@@H]1CCN(c2ccnc(C(N)=O)c2)C1` [Example 53, (S)-4-(3-(5-((2-((dimethylamino)methyl)-6-(trifluoromethyl)pyridin-4-yl)carbamoyl)-2-methylphenyl)pyrrolidin-1-yl)picolinamide], the Ki (DDR1) was < 5 nM and the Ki (DDR2) was 5 to 25 nM.
For `Cc1ccc(C(=O)Nc2cncc(C(F)(F)F)c2)cc1[C@@H]1CCN(c2cc(C(N)=O)ncn2)C1` [Example 54, (S)-6-(3-(2-methyl-5-((5-(trifluoromethyl)pyridin-3-yl)carbamoyl)phenyl)pyrrolidin-1-yl)pyrimidine-4-carboxamide], the Ki (DDR1) was < 5 nM and the Ki (DDR2) was < 5 nM.
`Cc1ccc(C(=O)Nc2cc(C(C)(C)C(F)(F)F)on2)cc1[C@@H]1CCN(c2cnccc2C#N)C1` [Example 55, (S)-3-(1-(4-cyanopyridin-3-yl)pyrrolidin-3-yl)-4-methyl-N-(5-(1,1,1-trifluoro-2-methylpropan-2-yl)isoxazol-3-yl)benzamide] was tested, and the Ki (DDR1) was < 5 nM and the Ki (DDR2) was < 5 nM.
`CCc1cc(NC(=O)c2ccc(C)c([C@@H]3CCN(c4cnccc4C#N)C3)c2)no1` [Example 56, (S)-3-(1-(4-cyanopyridin-3-yl)pyrrolidin-3-yl)-N-(5-ethylisoxazol-3-yl)-4-methylbenzamide] was tested, and the Ki (DDR1) was < 5 nM and the Ki (DDR2) was < 5 nM.
For `Cc1ccc(C(=O)Nc2cc(OC(F)(F)F)ccn2)cc1[C@@H]1CCN(c2ccnc(C(N)=O)c2)C1` [Example 57, (S)-4-(3-(2-methyl-5-((4-(trifluoromethoxy)pyridin-2-yl)carbamoyl)phenyl)pyrrolidin-1-yl)picolinamide], the Ki (DDR1) was < 5 nM and the Ki (DDR2) was 5 to 25 nM.
With `Cc1ccc(C(=O)Nc2cc(C(C)(C)C(F)(F)F)on2)cc1[C@@H]1CCN(c2cnccn2)C1` [Example 58, (S)-4-methyl-3-(1-(pyrazin-2-yl)pyrrolidin-3-yl)-N-(5-(1,1,1-trifluoro-2-methylpropan-2-yl)isoxazol-3-yl)benzamide] the Ki (DDR1) was < 5 nM and the Ki (DDR2) was < 5 nM.
In the case of `Cc1ccc(C(=O)Nc2cc(C3CC3)nn2C)cc1[C@@H]1CCN(c2cncc(-c3cnn(C)c3)c2)C1` [Example 59, (S)-N-(3-cyclopropyl-1-methyl-1H-pyrazol-5-yl)-4-methyl-3-(1-(5-(1-methyl-1H-pyrazol-4-yl)pyridin-3-yl)pyrrolidin-3-yl)benzamide], the Ki (DDR1) is reported as < 5 nM and the Ki (DDR2) is reported as 5 to 25 nM.
With `Cc1ccc(C(=O)Nc2cc(C(C)(C)C(F)(F)F)on2)cc1[C@H]1CCN(c2cncc(-c3cnn(C)c3)c2)C1` [Example 60, (R)-4-methyl-3-(1-(5-(1-methyl-1H-pyrazol-4-yl)pyridin-3-yl)pyrrolidin-3-yl)-N-(5-(1,1,1-trifluoro-2-methylpropan-2-yl)isoxazol-3-yl)benzamide] the Ki (DDR1) was < 5 nM and the Ki (DDR2) was < 5 nM.
In the case of `Cc1ccc(C(=O)Nc2cncc(C(F)(F)F)c2)cc1[C@@H]1CCN(c2ncnc3cc(C(=O)N4CCOCC4)sc23)C1` [Example 61, (S)-4-methyl-3-(1-(6-(morpholine-4-carbonyl)thieno[3,2-d]pyrimidin-4-yl)pyrrolidin-3-yl)-N-(5-(trifluoromethyl)pyridin-3-yl)benzamide], the Ki (DDR1) is reported as < 5 nM and the Ki (DDR2) is reported as 5 to 25 nM.
